TGI data for three compounds are collected here from PubChem BioAssay (NCI).

Test systems include KM12 colon; PC-3 prostate; HS 578T breast; NCI-H460 lung; U251 CNS; HL-60(TB) leukemia; SN12C renal; NCI-H522 lung; HCT-116 colon; OVCAR-8 ovarian.
What all share (assay): NCI tumour cell line growth inhibition, 48 h

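Growth conditions: 96-well plates. Treatment: test compound, 48 hours, 5 concentrations. Analysis: linear interpolation between bracketing concentrations; unreached endpoints set to highest concentration. Definition used: TGI = concentration required for complete inhibition of growth.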 A value given as a limit tells only on which side of the number the result lay.

Regarding `O=c1cc(-c2ccc(O)c(O)c2)oc2cc(OC3OC(CO)C(O)C(O)C3O)cc(O)c12` (stereo not given), the TGI in the test with KM12 colon, with PC-3 prostate, with HS 578T breast, with NCI-H460 lung, in the test on U251 CNS and with HL-60(TB) leukemia was greater than 100 µM each time. The TGI in the test on SN12C renal, in the test with NCI-H522 lung, in the test with HCT-116 colon and in the test on OVCAR-8 ovarian was greater than 100 µM throughout.
Consider `Cc1ccc2c(c1)C(C1Cc3c(C)cccc3C1=O)OC2=O` (stereo not given), for which the TGI in the test on KM12 colon, in the test with PC-3 prostate, with HS 578T breast, in the test with NCI-H460 lung, in the test on U251 CNS and in the test on HL-60(TB) leukemia was greater than 100 µM in each case. Also, the TGI in the test on SN12C renal, in the test on NCI-H522 lung, in the test with HCT-116 colon and with OVCAR-8 ovarian was greater than 100 µM in each case.
Turning to `Cc1sc2ncnc(NCCc3ccccc3)c2c1C`, the TGI in the test with KM12 colon is 29.6 µM; with PC-3 prostate, 40.3 µM; in the test with HS 578T breast, 63.6 µM; with NCI-H460 lung it was 23.9 µM; with U251 CNS, 26.7 µM; in the test on HL-60(TB) leukemia, 29.3 µM. Also, the TGI in the test with SN12C renal was found to be 28.3 µM; in the test with NCI-H522 lung it was 25.1 µM; with HCT-116 colon it was 24.9 µM; in the test on OVCAR-8 ovarian it was 38 µM.
